In PubChem BioAssay (NCI):
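Grown in 96-well plates, cells were treated for 48 hours with each compound at five concentrations. Insufficient inhibition: endpoint recorded as highest concentration tested. The concentration for full growth arrest is given as TGI.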

Tests used:
Experiment in all cases: DTP human tumour cell line panel, 48 h
[1] = tested on: 786-0 renal
[2] = tested on: CAKI-1 renal
[3] = tested on: COLO 205 colon
[4] = tested on: MCF7 breast
[5] = tested on: NCI-H226 lung
[6] = tested on: NCI/ADR-RES ovarian
[7] = tested on: OVCAR-3 ovarian
[8] = tested on: OVCAR-4 ovarian
[9] = tested on: OVCAR-8 ovarian
[10] = tested on: RPMI-8226 leukemia
[11] = tested on: SK-MEL-5 melanoma
[12] = tested on: TK-10 renal

SMILES | TGI [1] [µM] | TGI [2] [µM] | TGI [3] [µM] | TGI [4] [µM] | TGI [5] [µM] | TGI [6] [µM] | TGI [7] [µM] | TGI [8] [µM] | TGI [9] [µM] | TGI [10] [µM] | TGI [11] [µM] | TGI [12] [µM]
CC(=O)NC1C(OCC(=O)NCCNc2ccc([N+](=O)[O-])c3[nH]c4ccccc4c(=O)c23)C(O)C(CO)OC1(C)OCc1ccccc1 (configuration not stated) | > 100 | > 100 | > 100 | > 100 | > 100 | > 100 | > 100 | > 100 | > 100 | > 100 | > 100 | > 100
COc1ccc(-c2oc3cc(-c4cc5oc(-c6ccc(OC)cc6)c(-c6ccc(OC)cc6)c5cc4OC)c(OC)cc3c2-c2ccc(OC)cc2)cc1 | > 100 | > 100 | > 100 | > 100 | > 100 | > 100 | > 100 | > 100 | > 100 | > 100 | > 100 | > 100
N#Cc1ccccc1OCCOc1ccccc1C#N | > 100 | > 100 | > 100 | > 100 | > 100 | > 100 | > 100 | > 100 | > 100 | > 100 | > 100 | > 100
CN(NC1=NCCO1)c1ccc2ccccc2c1 | > 100 | > 100 | > 100 | > 100 | > 100 | > 100 | 72.7 | > 100 | > 100 | > 100 | 93.3 | > 100
O=C1CC(O)c2cscc21 (configuration not stated) | > 100 | > 100 | > 100 | > 100 | > 100 | > 100 | > 100 | > 100 | > 100 | > 100 | > 100 | > 100
O=C(c1ccc(Cl)cc1)N(C(=O)N1CCCCC1)c1ccccc1 | > 100 | > 100 | > 100 | > 100 | > 100 | > 100 | > 100 |  | > 100 | > 100 | > 100 | 
CCOC(=O)c1c(NC(=O)c2ccccc2)c(C#N)c2n1CCCCC2 | > 100 | > 100 | > 100 | > 100 | > 100 | > 100 |  | > 100 | > 100 | > 100 | > 100 | > 100
CC(SC(=S)N1CCOCC1)C(=O)Nc1nnc(-c2ccc(Cl)cc2)o1 (configuration not stated) | > 100 |  | > 100 | > 100 | > 100 | > 100 | > 100 | > 100 | > 100 | 66.3 | > 100 | > 100
